“Also recorded” adds a separate entry of the source.
How the values were obtained:
[1] = test system: angioproliferative KS-like lesions induced by KS cells; experiment: KS-like lesions induced by inoculation of KS cells in nude mice (drug pre-treatment); type: in vivo; details: KS cells 3×10^6; treatment starting 2 days before cell inoculation
Source text: At the time of sacrifice, the sites of inoculation were examined to check for the presence of macroscopic angioproliferative lesions as described in the key to FIG. 12 and Table 5.
These angioproliferative lesions are transient, of murine origin and are developed in response to cytokines, such as bFGF and VEGF, IL-1, IL-6 and others, released by the KS cells (Ensoli et al., 1989; Ensoli et al., 1994a; Ensoli et al., 1994b; Fiorelli et al., 1995; Samaniego et al., 1995; Samaniego et al., 1997; Sgadari et al., 2000). In fact, at least in initial phase, KS is a reactive angioproliferative diseases and not a true neoplasm (Ensoli and Sturzl, 1998).
At the time of sacrifice, the sites of inoculation were examined to check for the presence of macroscopic angioproliferative KS-like lesions as described in the key to Table 1. Here are listed the number (No.) of mice that developed lesions with respect to the number (No.) of mice inoculated, and the percentage (%) of mice that developed lesions.

[2] = test system: primary macrovascular (umbilical vein) endothelial cells (HUVEC); experiment: Boyden chamber migration assay of HUVEC in response to bFGF; type: cell-based, human; details: 0.1, 1 or 10 μM; bFGF 50 ng/ml; 5 hours
Description: (§1) Both assays were performed on endothelial cells.
(§2) Both assays were performed by the Boyden chamber separated in two compartments by polycarbonate filters with 12 μm pores (Nucleoprobe, Cabin John, Md.), coated with collagen IV (Collaborative Biomedical Products) for migration, or with collagen IV and Matrigel together for invasion, as described previously (Barillari et al., 1999b). […] After 5 hours (migration) or 6 hours (Invasion) of incubation, the non-migrated cells present on the top surface of the filters were mechanically removed, while the migrated cells on the bottom surface were fixed in methanol and stained with toluidine blue (Sigma Chemical Co., St. Louis, Mo.). The cells present in 5-10 microscopic fields of the filters, chosen at random, were counted as described previously (Barillari et al., 1999b).
(§3) The concentrations of HIV-PI used were the same as those present in plasma of treated patients (Deeks et al., 1997).

[3] = test system: IL-1β; experiment: IL-1β production by KS cells (ELISA); type: cell-based, human; details: 0.1, 1 and 10 μM, 5 days + 24 hours
Description: After 24 hours of incubation, the supernatants of the cultures were tested by ELISA (R & D Systems, Minneapolis, Minn., USA) to determine the quantity of IL-6 present in the medium. The quantity of IL-6 is expressed in pg/ml of supernatant. The same tests were carried out for bFGF, VEGF, IL-1α and IL-1β by means of commercial ELISA kits.
KS cells secrete cytokines with an inflammatory, oedemigenic, angiogenic and proliferative activity with autocrine and paracrine effects (Ensoli and Stürzl, 1998). These factors mediate all the processes required for KS-like lesions formation (angiogenesis, cellular proliferation and invasion, inflammatory Infiltration, oedema) and vascular permeability and oedema induced by KS cells in nude mice. […] The quantity of bFGF, VEGF, IL-1 and IL-6 was dosed with immuno-enzymatic trials in the supernatants of the KS cells after 24 hours of culture in the absence of serum and in the continuous presence of the two HIV-PI (ELISA). […] Furthermore IL-6 plays a key role in the multicentric Cstleman's diseases and in the growth of lymphomas (Tosato et al., 1993; Peterson and Frizzera, 1993; Asou et al., 1998; Ramsay et al., 1994), another type of tumour whose incidence is reduced in patients treated with HIV-PI (International Collaboration on HIV and Cancer 2000).

[4] = test system: dermal microvascular endothelial cells (H-DMVEC); experiment: Proliferation assay of dermal microvascular endothelial cells with bFGF; type: cell-based, human; details: 10 μM; 5 days; bFGF 10 ng/ml
Source text: After 5 days of culture, cells were counted by trypan blue dye exclusion, as described above. Data from duplicate experiments are expressed as the number of […] grown in response to bFGF in the presence of indinavir, saquinavir or HIV-PI-resuspension buffer.

[5] = test system: primary macrovascular (umbilical vein) endothelial cells (HUVEC); experiment: Boyden chamber invasion assay of HUVEC in response to bFGF; type: cell-based, human; details: 0.1, 1 or 10 μM; bFGF 50 ng/ml; 6 hours
Description: as §1, §2, §3

[6] = test system: T cell leukaemia (Jurkat) cells; experiment: Tumour lesions induced by Jurkat cells in nude mice; type: in vivo; details: 20×10^6 cells/site; daily treatment
Description: (§4) The treatment with HIV-PI or saline solution continued until sacrifice. The size of the lesions present at the injection site was evaluated daily by caliper measurement. External lesion area was then calculated as the product of the two major lesion diameters. The mean size (cm^2) of the lesions present at the injection site is shown.
(§5) To determine whether HIV-PI could inhibit the growth of malignant solid and lymphoid tumours, nude mice were inoculated with hepato-carcinoma cells (SK-Hep-1), lung carcinoma cells (A549), breast adeno-carcinoma cells (MDA-MB-468), myelo-monocytic leukaemia cells (U937), and T lymhocytic leukaemia cells (Jurkat).

[7] = test system: lesions promoted by bFGF and HIV-1 Tat combined; experiment: KS-like lesions promoted by bFGF and HIV-1 Tat combined in nude mice; type: in vivo; details: bFGF 1 μg + Tat 10 μg
Source text: Here are listed the number (N.) of mice that developed lesions with respect to the number (N.) of mice inoculated, and the percentage (%) of mice that developed lesions.

[8] = test system: breast carcinoma (MDA-MB468) cells; experiment: Tumour lesions induced by MDA-MB468 cells in nude mice; type: in vivo; details: 5×10^6 cells/site; daily treatment
Description: as §4, with “FIG. 28. […] The treatment” for “The treatment”
as §5

| SMILES | No. of mice with macroscopic lesions/No. of inoculated mice [1] | mice with macroscopic lesions (%) [1] [%] | migration induced by bFGF [2] | production of IL-1β by KS cells [3] | production of IL-1β by KS cells ([3]; listed as indinavir) | proliferation in response to bFGF [4] | invasion induced by bFGF [5] | development of tumour lesions (lesion size) [6] | No. of macroscopic vascular lesions/No. of mice injected [7] | mice that developed lesions (%) [7] [%] | development of tumour lesions (lesion size) [8] |
| --- | --- | --- | --- | --- | --- | --- | --- | --- | --- | --- | --- |
| CC(C)(C)NC(=O)[C@@H]1CN(Cc2cccnc2)CCN1C[C@@H](O)C[C@@H](Cc1ccccc1)C(=O)N[C@H]1c2ccccc2C[C@H]1O [Indinavir, indinavir] | 7/16 | 43 | block | inhibited | reduced | do not interfere | block | inhibit | 5/10 | 50 | inhibit |
| CC(C)(C)NC(=O)[C@@H]1C[C@@H]2CCCC[C@@H]2CN1C[C@@H](O)[C@H](Cc1ccccc1)NC(=O)[C@H](CC(N)=O)NC(=O)c1ccc2ccccc2n1 [Saquinavir, saquinavir] | 4/16 | 25 | block | reduced; also recorded: inhibited |  | do not interfere | block | inhibit | 2/10 | 20 | inhibit |

Source: US20060088545A1, “Use of inhibitors of the protease of the human immunodeficiency virus (hiv) to block cell migration and/or invasion, tissue infiltration and oedema for the therary of diseases associated therewith” (priority 2001, published 2006)
